Data reported in patent publication US20170037078A1, “2' -DIS[…] FOR TREATMENT OF THE FL[…] OF VIRUSES AND CANCER” (Cocrystal Pharma, Inc., priority 2014, published 2017).
pEC50, pIC50: −log10 of the molar value. Entries after “also recorded” stand apart in the source; their conditions may differ. Like-named read-outs stand apart in the source and are kept apart here.

What was measured:
[1] = test system: Primary human bone marrow mononuclear cells; assay: Bone Marrow Colony Forming Cell Assay (BFU-E); assay type: cell-based
Description: Primary human bone marrow mononuclear cells were obtained commercially from Cambrex Bioscience (Walkersville, Md.). CFU-GM assays were carried out using a bilayer soft agar in the presence of 50 units/mL human recombinant granulocyte/macrophage colony-stimulating factor, while BFU-E assays used a […] matrix containing 1 unit/mL erythropoietin (see Sommadossi J P, Carlisle R. Toxicity of 3′-azido-3′-deoxythymidine and 9-(1,3-dihydroxy-2-propoxymethyl) guanine for normal human hepatopoietic progenitor cells in vitro. Antimicrob. Agents Chemother. 1987; 31: 452-454; Sommadossi, J P, Schinazi, R F, Chu, C K, and Xie, M Y. Comparison of cytotoxicity of the (−) and (+) enantiomer of 2′,3′-dideoxy-3′-thiacytidine in normal human bone marrow progenitor cells. Biochem. Pharmacol. 1992; 44:1921-1925). Each experiment was performed in duplicate in cells from three different donors. AZT was used as a positive control. […] The 50% inhibitory concentration (IC50) was obtained by least-squares linear regression analysis of the logarithm of drug concentration versus BFU-E survival fractions. Statistical analysis was performed with Student's t test for independent non-paired samples.

[2] = test system: Human PBM; assay: Cellular toxicity assay in human PBM cells; assay type: cell-based; conditions: Human PBM cells
Description: (§1) The toxicity of the compounds was assessed in Vero, human PBM, CEM (human lymphoblastoid), MT-2, and HepG2 cells, as described previously (see Schinazi R. F., Sommadossi J.-P., Saalmann V., Cannon D. L., Xie M.-Y., Hart G. C., Smith G. A. & Hahn E. F. Antimicrob. Agents Chemother. 1990, 34, 1061-67). Cycloheximide was included as positive cytotoxic control, and untreated cells exposed to solvent were included as negative controls. The cytotoxicity IC50 was obtained from the concentration-response curve using the median effective method described previously (see Chou T.-C. & Talalay P. Adv. Enzyme Regul. 1984, 22, 27-55; Belen'kii M. S. & Schinazi R. F. Antiviral Res. 1994, 25, 1-11).

[3] = test system: Vero; assay: Cellular toxicity assay in Vero cells; assay type: cell-based
Description: as §1

[4] = test system: CEM (human lymphoblastoid); assay: Cellular toxicity assay in CEM cells; assay type: cell-based
Description: as §1

[5] = test system: HepG2 cells; assay: Mitochondrial toxicity assay: mitochondrial and nuclear DNA levels in HepG2 cells; assay type: cell-based; conditions: 14-day assay
Description: This assay was used in all studies described in this application that determine the effect of compounds on mitochondrial DNA content. In this assay, low-passage-number HepG2 cells were seeded at 5,000 cells/well in collagen-coated 96-well plates. Test compounds were added to the medium to obtain final concentrations of 0 μM, 0.1 μM, 10 μM and 100 μM. […] The mitochondrial cytochrome c oxidase subunit II (COXII) gene and the β-actin or rRNA gene were amplified from 5 μl of the eluted nucleic acids using a multiplex Q-PCR protocol with suitable primers and probes for both target and reference amplifications. […] For exon 3 of the […] gene (GenBank accession number E01094) the sense, probe, and antisense primers are 5′-[…]-3′, 5′-6-[…]-3′ and 5′-[…]-3′, respectively. The primers and probes for the rRNA gene are commercially available from Applied Biosystems. […] The arithmetic formula for this approach is given by 2-ΔΔCT, where ΔΔCT is (CT for average target test sample−CT for target control)−(CT for average reference test−CT for reference control) (see Johnson M R, K Wang, J B Smith, M J Heslin, R B Diasio. Quantitation of dihydropyrimidine dehydrogenase expression by real-time reverse transcription polymerase chain reaction. Anal. Biochem. 2000; 278:175-184). A decrease in mitochondrial DNA content in cells grown in the presence of drug indicated mitochondrial toxicity.

[6] = test system: HepG2 cells; assay: Mitochondrial toxicity assay: lactic acid production in HepG2 cells; assay type: cell-based; conditions: 14-day assay
Description: To measure the effects of the compounds on lactic acid production, HepG2 cells from a stock culture were diluted and plated in 12-well culture plates at 2.5×10^4 cells per well. […] […] The culture medium was then filtered, and the lactic acid content in the medium was determined using a colorimetric lactic acid assay (Sigma-Aldrich). Since lactic acid product can be considered a marker for impaired mitochondrial function, elevated levels of lactic acid production detected in cells grown in the presence of test compounds would indicate a drug-induced cytotoxic effect. • ii) Effect of Compounds on Mitochondrial DNA Synthesis:

[7] = test system: HCV GT 1b replicon (Huh-7 cells); assay: HCV Replicon Assay; assay type: cell-based
Description: (§2) Huh 7 Clone B cells containing HCV Replicon RNA were seeded in a 96-well plate at 5000 cells/well, and the compounds tested at 10 μM in triplicate immediately after seeding. Following five days incubation (37° C., 5% CO2), total cellular RNA was isolated by using versaGene RNA purification kit from Gentra. Replicon RNA and an internal control (TaqMan rRNA control reagents, Applied Biosystems) were amplified in a single step multiplex Real Time RT-PCR Assay. The antiviral effectiveness of the compounds was calculated by subtracting the threshold RT-PCR cycle of the test compound from the threshold RT-PCR cycle of the no-drug control (ΔCt HCV). A ΔCt of 3.3 equals a 1-log reduction (equal to 90% less starting material) in Replicon RNA levels. The cytotoxicity of the compounds was also calculated by using the ΔCt rRNA values. 2′-C-Me-C was used as the positive control. To determine EC90 and IC50 values^2, ΔCt: values were first converted into fraction of starting material^3 and then were used to calculate the % inhibition.

[8] = test system: Huh-7 cells; assay: Cytotoxicity in HCV replicon assay (ΔCt rRNA); assay type: cell-based; conditions: HCV GT 1b replicon, Huh-7 cells
Description: as §2

[9] = Cellular toxicity assay in human PBM cells; assay type: cell-based; conditions: human, human PBM cells; read-out: Cytotoxicity, CC50
Description: as §1

[10] = Cellular toxicity assay in Vero cells; assay type: cell-based; conditions: African green monkey, read-out: Cytotoxicity, CC50
Description: as §1

[11] = Cellular toxicity assay in CEM cells; assay type: cell-based, human; conditions: human, CEM lymphoblastoid cells, read-out: Cytotoxicity, CC50
Description: as §1

[12] = Cytotoxicity in HCV replicon assay (ΔCt rRNA); assay type: cell-based; conditions: human, Huh-7 Clone B cells containing HCV GT 1b replicon RNA; HCV GT 1b replicon Huh-7 cells
Description: as §2

[13] = target: Human DNA Polymerase Pol Beta (Homo sapiens, UniProt P06746); assay: Inhibition of Human DNA Polymerase Beta; assay type: biochemical
[14] = target: T1, Human DNA Polymerase Pol Gamma (Homo sapiens, UniProt P54098); assay: Inhibition of Human DNA Polymerase Gamma; assay type: biochemical
T1 construct: made in house
T1 sequence (P54098 26-1239 limits assumed): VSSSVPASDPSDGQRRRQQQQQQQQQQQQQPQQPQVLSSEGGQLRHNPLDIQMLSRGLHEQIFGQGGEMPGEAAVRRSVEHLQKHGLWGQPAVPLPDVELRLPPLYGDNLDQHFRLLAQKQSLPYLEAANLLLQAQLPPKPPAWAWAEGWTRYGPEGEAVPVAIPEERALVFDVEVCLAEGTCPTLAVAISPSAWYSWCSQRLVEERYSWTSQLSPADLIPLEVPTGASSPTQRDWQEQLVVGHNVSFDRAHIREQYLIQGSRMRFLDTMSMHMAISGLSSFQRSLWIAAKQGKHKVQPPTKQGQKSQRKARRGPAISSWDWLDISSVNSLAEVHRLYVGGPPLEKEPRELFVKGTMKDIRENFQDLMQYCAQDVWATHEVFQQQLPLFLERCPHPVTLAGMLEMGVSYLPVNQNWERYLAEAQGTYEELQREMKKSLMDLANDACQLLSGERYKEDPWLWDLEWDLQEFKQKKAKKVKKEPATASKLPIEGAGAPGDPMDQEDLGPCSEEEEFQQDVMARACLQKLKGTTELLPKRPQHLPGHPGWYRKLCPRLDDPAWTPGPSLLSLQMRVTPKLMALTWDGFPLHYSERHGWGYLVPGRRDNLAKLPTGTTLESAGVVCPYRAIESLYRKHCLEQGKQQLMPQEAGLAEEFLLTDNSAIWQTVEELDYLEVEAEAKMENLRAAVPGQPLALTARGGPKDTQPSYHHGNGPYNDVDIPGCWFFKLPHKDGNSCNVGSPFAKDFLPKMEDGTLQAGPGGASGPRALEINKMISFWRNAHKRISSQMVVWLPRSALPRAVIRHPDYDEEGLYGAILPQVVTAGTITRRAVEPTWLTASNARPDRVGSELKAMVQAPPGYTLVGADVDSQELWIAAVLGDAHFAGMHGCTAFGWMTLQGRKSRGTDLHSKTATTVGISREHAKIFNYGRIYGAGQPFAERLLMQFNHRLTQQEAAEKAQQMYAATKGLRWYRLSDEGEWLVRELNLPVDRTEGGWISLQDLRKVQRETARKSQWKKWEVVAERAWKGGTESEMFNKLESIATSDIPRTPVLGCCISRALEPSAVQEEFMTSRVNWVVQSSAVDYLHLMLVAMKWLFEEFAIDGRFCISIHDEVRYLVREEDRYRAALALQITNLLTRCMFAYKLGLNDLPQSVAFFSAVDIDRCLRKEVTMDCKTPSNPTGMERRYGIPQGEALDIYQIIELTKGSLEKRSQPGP
T1 sequence (Q9UHN1 26-485 partner limits assumed): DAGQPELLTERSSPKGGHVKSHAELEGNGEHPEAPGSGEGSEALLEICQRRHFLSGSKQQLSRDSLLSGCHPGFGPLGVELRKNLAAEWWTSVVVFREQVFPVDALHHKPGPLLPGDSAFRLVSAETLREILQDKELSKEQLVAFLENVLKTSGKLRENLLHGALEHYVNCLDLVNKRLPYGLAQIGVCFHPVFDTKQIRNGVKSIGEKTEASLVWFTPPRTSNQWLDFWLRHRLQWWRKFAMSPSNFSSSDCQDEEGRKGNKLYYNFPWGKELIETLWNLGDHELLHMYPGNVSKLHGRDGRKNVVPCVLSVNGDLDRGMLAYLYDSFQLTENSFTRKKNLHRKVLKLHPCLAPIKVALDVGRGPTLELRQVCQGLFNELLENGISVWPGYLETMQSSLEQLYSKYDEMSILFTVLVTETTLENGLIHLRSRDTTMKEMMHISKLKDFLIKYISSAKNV

| Structure (SMILES) | pIC50 ([1]; Donor 2) | % inhibition at maximum concentration evaluated [2] | % inhibition at maximum concentration evaluated [3] | % inhibition at maximum concentration evaluated [4] | Summary (mitochondrial toxicity) [5] | % Inhibition MtDNA ([5]; 10 μM) | % Inhibition nDNA ([5]; 10 μM) | MtDNA Content (% of control) ([5]; 10 μM) | MtDNA Content (% of control) ([5]; 50 μM) | pIC50 ([5]; read-out: IC50, MtDNA) | pIC50 ([5]; read-out: IC50, nDNA) | Lactic acid Production (% of control) ([6]; 10 μM) | Lactic acid Production (% of control) ([6]; 50 μM) | also measured |
| --- | --- | --- | --- | --- | --- | --- | --- | --- | --- | --- | --- | --- | --- | --- |
| Cc1cn([C@H]2C[C@H](N=[N+]=[N-])[C@@H](CO)O2)c(=O)[nH]c1=O [AZT, reference compound] | 5.54 | – | – | – | – | – | – | – | – | – | – | – | – | pIC50 ([1]; Donor 1): 6.52 |
| O=c1ccn(C2OC(CO)C(O)C2(F)Cl)c(=O)[nH]1 (centres unmarked) [Compound 10] | – | −4.1% | −30.7% | −48.1% | non-toxic; also recorded: not toxic | < 1% | 8.76% | 161 (113-230) % of control | 116 (77-175) % of control | < 4.30 | < 4.30 | 84.59 ± 7.30 % of control | 122.3 ± 5.80 % of control | CC50 ([2]; read-out: Cytotoxicity, CC50): > 100 µM; CC50 ([3]; read-out: Cytotoxicity, CC50): > 100 µM; CC50 ([4]; read-out: Cytotoxicity, CC50): > 100 µM; % Inhibition MtDNA ([5]; 50 μM): <1/<1%; % Inhibition nDNA ([5]; 50 μM): <1/<1%; pEC50 [7]: < 5.00; EC90 [7]: > 10 µM; CC50 [8]: > 10 µM |
| CC(C)OC(=O)[C@H](C)NP(=O)(OC[C@H]1O[C@@H](n2ccc(=O)[nH]c2=O)C(F)(Cl)[C@H]1O)Oc1ccccc1 (stereo partly drawn) [Compound 12, (2S)-isopropyl-2-(((4-chloro-5-(2,4-dioxo-3,4-dihydropyrimidin-1 (2H)-yl-4-fluoro-3-hydroxytetrahydrofuran-2-yl)methoxy) (phenoxy)phosphoryl)amino)propanoate] | < 4.00 | 36.2% | 17.4% | −4.8% | non-toxic; also recorded: not toxic | – | – | 129 (117-143) % of control | 84 (68-102) % of control | – | – | 60.20 ± 1.25 % of control | 55.49 ± 0.88 % of control | CC50 [9]: > 100 µM; CC50 [10]: > 100 µM; CC50 [11]: > 100 µM; inhibition at 10 µM ([5]; Homo sapiens, 336 h, 10 μM, read-out: % Inhibition MtDNA): < 1%; inhibition at 10 µM ([5]; Homo sapiens, 336 h, 10 μM, read-out: % Inhibition nDNA): < 1%; inhibition at 50 µM ([5]; Homo sapiens, 336 h, 50 μM, read-out: % Inhibition MtDNA): 27%; inhibition at 50 µM ([5]; Homo sapiens, 336 h, 50 μM, read-out: % Inhibition nDNA): 12.8%; pIC50 ([5]; Homo sapiens, 336 h, read-out: IC50, MtDNA): < 4.30; pIC50 ([5]; Homo sapiens, 336 h, read-out: IC50, nDNA): < 4.30; pIC50 ([1]; Homo sapiens, Donor 1): < 4.00; pEC50 ([7]; Hepatitis C virus, GT1B): 6.00 to 7.00; EC90 ([7]; Hepatitis C virus, GT1B): 0.1 to 1 µM; CC50 at 5 days [12]: > 10 µM |
| Nc1ccn([C@H]2CC[C@@H](CO)O2)c(=O)n1 [ddC, reference compound] | – | – | – | – | toxic | 95.5% | 52.6% | 9.5 (5.7-16.0) % of control | – | > 5.00 | ≥ 5.00 | 325.93 ± 27.05 % of control | – | – |
| Cc1cn([C@H]2CC[C@@H](COP(=O)(O)OP(=O)(O)OP(=O)(O)O)O2)c(=O)[nH]c1=O [ddTTP] | – | – | – | – | – | – | – | – | – | – | – | – | – | pIC50 [13]: 4.74; pIC50 [14]: 4.37 |
